Measured values from paper PMC9098912, “Molecular basis for inhibiting human glucose transporters by exofacial inhibitors” (Nature Communications, 2022).
Numbering of substitutions follows the chain as printed.

Key:
Test in all cases: MST binding assay, GLUT3 variant
Conditions in all cases: read-out: Kd of SA47
[1] = target: T1, GLUT3 W386A (Homo sapiens, UniProt P11169, N43T/W386A)
T1 construct: His10 (N); made in house; host or cells: Sf9 insect cells (baculovirus)
T1 sequence (P11169 1-496 N43T/W386A): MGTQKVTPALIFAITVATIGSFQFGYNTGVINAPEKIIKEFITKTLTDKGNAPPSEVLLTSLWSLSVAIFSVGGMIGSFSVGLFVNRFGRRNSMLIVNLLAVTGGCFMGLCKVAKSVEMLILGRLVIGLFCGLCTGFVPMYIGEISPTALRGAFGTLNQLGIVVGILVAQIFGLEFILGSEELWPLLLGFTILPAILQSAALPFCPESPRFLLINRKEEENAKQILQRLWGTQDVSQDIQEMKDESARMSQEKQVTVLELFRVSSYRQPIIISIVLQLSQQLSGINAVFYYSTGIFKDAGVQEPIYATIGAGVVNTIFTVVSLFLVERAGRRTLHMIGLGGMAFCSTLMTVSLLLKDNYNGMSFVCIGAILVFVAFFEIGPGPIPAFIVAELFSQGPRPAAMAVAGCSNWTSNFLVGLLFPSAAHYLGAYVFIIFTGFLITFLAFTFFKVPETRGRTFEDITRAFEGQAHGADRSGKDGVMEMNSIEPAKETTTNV
Method: (§1) All mutants were generated by standard PCR-based strategy.
(§2) Inhibitors with serial dilutions were mixed with indicated protein. […] MST analyses were conducted on a Monolith NT. […] The MST data was analyzed by Monolith NT.115.

[2] = target: T2, GLUT3 N413A (Homo sapiens, UniProt P11169, N413A/N43T)
T2 construct: His10 (N); made in house; host or cells: Sf9 insect cells (baculovirus)
T2 sequence (P11169 1-496 N43T/N413A): T1 sequence (P11169 1-496 N43T/W386A) with A386W, N413A
Method: as §1, §2

[3] = target: T3, GLUT3 Q159A (Homo sapiens, UniProt P11169, N43T/Q159A)
T3 construct: His10 (N); made in house; host or cells: Sf9 insect cells (baculovirus)
T3 sequence (P11169 1-496 N43T/Q159A): T1 sequence (P11169 1-496 N43T/W386A) with Q159A, A386W
Method: as §1, §2

[4] = target: T4, GLUT3 N315A (Homo sapiens, UniProt P11169, N315A/N43T)
T4 construct: His10 (N); made in house; host or cells: Sf9 insect cells (baculovirus)
T4 sequence (P11169 1-496 N43T/N315A): T1 sequence (P11169 1-496 N43T/W386A) with N315A, A386W
Method: as §1, §2

[5] = target: T5, GLUT3 F289A (Homo sapiens, UniProt P11169, F289A/N43T)
T5 construct: His10 (N); made in house; host or cells: Sf9 insect cells (baculovirus)
T5 sequence (P11169 1-496 N43T/F289A): T1 sequence (P11169 1-496 N43T/W386A) with F289A, A386W
Method: as §1, §2

SMILES: COC(=O)CCNCc1ccccc1-n1ncc2c(N3CCN(c4cc(F)ccc4OC)CC3)ncnc21 [SA47]
- Kd [1]: 30.3 ± 10.7 µM
- Kd [2]: 0.81 ± 0.214 µM
- Kd [3]: 4.1 ± 0.8 µM
- Kd [4]: 9.5 ± 2.2 µM
- Kd [5]: 0.164 ± 0.067 µM
